Laboratory results published in the NIST ThermoML archive (doi:10.1021/acs.jced.5b00623).
Several values for one entry are separate records, joined by “and”; a condition that tells them apart may be missing. Equal values may be shown once. Numbers after ± are expanded uncertainties.

Settings: for mass density: Buoyancy - hydrostatic balance with magnetic suspension - two sinkers; for vapor or sublimation pressure: Closed cell (Static) method; for speed of sound: Spherical resonator

O=C(C(F)(F)C(F)(F)F)C(F)(C(F)(F)F)C(F)(F)F [dodecafluoro-2-methylpentan-3-one]
Settings | mass density [kg/m3] | speed of sound [m/s]
400.01 K, 16056 kPa, Liquid | 1413.68 ± 0.19 | –
400.01 K, 24343 kPa, Liquid | 1465.04 ± 0.2 | –
400.05 K, 54.88 kPa, Gas | – | 102.64 ± 0.2
400.05 K, 54.92 kPa, Gas | – | 102.64 ± 0.2
400.05 K, 154.66 kPa, Gas | – | 99.83 ± 0.2
400.05 K, 252.99 kPa, Gas | – | 96.94 ± 0.2
400.05 K, 354.19 kPa, Gas | – | 93.75 ± 0.19
400.05 K, 451.42 kPa, Gas | – | 90.4 ± 0.19
400.05 K, 554.73 kPa, Gas | – | 86.45 ± 0.18
400.05 K, 667.8 kPa, Gas | – | 81.52 ± 0.17
402 K, 14323 kPa, Liquid | 1395.32 ± 0.18 | –
410.01 K, 16854 kPa, Liquid | 1394.24 ± 0.19 | –
420 K, 19987 kPa, Liquid | 1392.85 ± 0.19 | –
420.02 K, 6075.7 kPa, Liquid | 1241.69 ± 0.17 | –
425.04 K, 60.31 kPa, Gas | – | 105.94 ± 0.21
425.04 K, 144.61 kPa, Gas | – | 104 ± 0.21
425.04 K, 258 kPa, Gas | – | 101.36 ± 0.2
425.04 K, 399.11 kPa, Gas | – | 97.86 ± 0.2
425.04 K, 546.05 kPa, Gas | – | 93.91 ± 0.19
425.04 K, 696.35 kPa, Gas | – | 89.45 ± 0.19
425.04 K, 845.73 kPa, Gas | – | 84.47 ± 0.18
425.04 K, 951.86 kPa, Gas | – | 80.49 ± 0.17
425.04 K, 1061.7 kPa, Gas | – | 75.84 ± 0.17
429.99 K, 8117.7 kPa, Liquid | 1240.57 ± 0.17 | –
430.02 K, 23113 kPa, Liquid | 1391.48 ± 0.19 | –
440 K, 10172 kPa, Liquid | 1239.42 ± 0.17 | –
440.01 K, 26214 kPa, Liquid | 1390.14 ± 0.2 | –
449.97 K, 1492 kPa, Gas | – | 74.05 ± 0.17
449.98 K, 99.8 kPa, Gas | – | 108.43 ± 0.21
449.98 K, 296.98 kPa, Gas | – | 104.72 ± 0.21
449.98 K, 499.37 kPa, Gas | – | 100.64 ± 0.2
449.98 K, 701.04 kPa, Gas | – | 96.26 ± 0.2
449.98 K, 901.63 kPa, Gas | – | 91.5 ± 0.19
449.98 K, 1104.8 kPa, Gas | – | 86.19 ± 0.18
449.98 K, 1292.1 kPa, Gas | – | 80.71 ± 0.17
449.98 K, 1680.8 kPa, Gas | – | 66.68 ± 0.15
450 K, 12226 kPa, Gas | 1238.27 ± 0.18 | –
450.01 K, 394.1 kPa, Gas | 35.895 ± 0.17 | –
450.01 K, 913.4 kPa, Gas | 93.929 ± 0.2 | –
450.01 K, 1478.4 kPa, Gas | 185.135 ± 0.4 | –
450.01 K, 2042.6 kPa, Gas | 417.845 ± 0.77 | –
450.01 K, 2500.6 kPa, Gas | 856.702 ± 0.45 | –
450.01 K, 2998.2 kPa, Gas | 943.857 ± 0.18 | –
450.01 K, 3997.1 kPa, Gas | 1026.46 ± 0.17 | –
450.01 K, 4993.9 kPa, Gas | 1075.63 ± 0.18 | –
450.01 K, 5983.6 kPa, Gas | 1111.42 ± 0.17 | –
450.01 K, 8215.2 kPa, Gas | 1169.39 ± 0.17 | –
450.01 K, 12010 kPa, Gas | 1235.17 ± 0.17 | –
450.01 K, 15954 kPa, Gas | 1283.62 ± 0.18 | –
450.01 K, 19948 kPa, Gas | 1321.88 ± 0.19 | –
450.01 K, 29286 kPa, Gas | 1388.75 ± 11 | –
460 K, 14282 kPa, Gas | 1237.17 ± 0.18 | –
469.99 K, 2186.2 kPa, Gas | 306.462 ± 0.37 | –
469.99 K, 2797.9 kPa, Gas | 560.84 ± 0.42 | –
469.99 K, 3424.1 kPa, Gas | 779.472 ± 0.23 | –
469.99 K, 6087.4 kPa, Gas | 1018.11 ± 0.15 | –
470 K, 680 kPa, Gas | 61.543 ± 0.17 | –
470 K, 1356.4 kPa, Gas | 142.264 ± 0.23 | –
470 K, 4374.3 kPa, Gas | 910.538 ± 0.15 | –
470 K, 7969.1 kPa, Gas | 1085.6 ± 0.16 | –
470 K, 9768.9 kPa, Gas | 1131.11 ± 0.16 | –
470 K, 11977 kPa, Gas | 1173.86 ± 0.17 | –
470 K, 14031 kPa, Gas | 1205.91 ± 0.18 | –
470 K, 16332 kPa, Gas | 1236.02 ± 0.18 | –
475.01 K, 147.79 kPa, Gas | – | 110.98 ± 0.22
475.01 K, 349.5 kPa, Gas | – | 107.83 ± 0.21
475.01 K, 501.76 kPa, Gas | – | 105.38 ± 0.21
475.01 K, 501.77 kPa, Gas | – | 105.38 ± 0.21
475.01 K, 501.78 kPa, Gas | – | 105.38 ± 0.21
475.01 K, 501.8 kPa, Gas | – | 105.38 ± 0.21
475.01 K, 697.46 kPa, Gas | – | 102.08 ± 0.2
475.01 K, 898.52 kPa, Gas | – | 98.51 ± 0.2
475.01 K, 1150.9 kPa, Gas | – | 93.77 ± 0.19
475.01 K, 1296.2 kPa, Gas | – | 90.92 ± 0.19
475.01 K, 1496.6 kPa, Gas | – | 86.78 ± 0.18
475.01 K, 1685 kPa, Gas | – | 82.69 ± 0.18
500.01 K, 103.24 kPa, Gas | – | 114.77 ± 0.22
500.01 K, 301.45 kPa, Gas | – | 112.25 ± 0.22
500.01 K, 502.44 kPa, Gas | – | 109.63 ± 0.21
500.01 K, 502.55 kPa, Gas | – | 109.63 ± 0.21
500.01 K, 502.62 kPa, Gas | – | 109.63 ± 0.21
500.01 K, 502.7 kPa, Gas | – | 109.63 ± 0.21
500.01 K, 502.81 kPa, Gas | – | 109.64 ± 0.21
500.01 K, 503 kPa, Gas | – | 109.64 ± 0.21
500.01 K, 703.51 kPa, Gas | – | 106.95 ± 0.21
500.01 K, 893.84 kPa, Gas | – | 104.33 ± 0.21
500.01 K, 1100.4 kPa, Gas | – | 101.42 ± 0.2
500.01 K, 1100.8 kPa, Gas | – | 101.42 ± 0.2
500.01 K, 1308.1 kPa, Gas | – | 98.44 ± 0.2
500.01 K, 1503.6 kPa, Gas | – | 95.59 ± 0.19
500.01 K, 1746.5 kPa, Gas | – | 92 ± 0.19
500.02 K, 1746.7 kPa, Gas | – | 92 ± 0.19
500.02 K, 1746.9 kPa, Gas | – | 91.99 ± 0.19

Liquid
Settings | vapor or sublimation pressure
400.01 K | 826 ± 2 kPa
410.02 K | 1016 ± 2.2 kPa
410.03 K | 1014.3 ± 2.2 kPa
420.02 K | 1238.2 ± 2.5 kPa and 1238.3 ± 2.5 kPa
